We go through 5 compounds from patent publication US10532066B2, “Surfactant lipids, compositions thereof, and uses thereof” (National Jewish Health, priority 2007, dated 2020).

For assay [1], the system named is differentiated U937 cells. In words: LPS-induced TNF-α secretion by differentiated U937 cells. Conditions: LPS 10 ng/ml, 6 h, liposomes; LPS without phospholipid = 100%. The class given is cell-based, human. How it is done: FIG. 1. Anionic phospholipids inhibit inflammatory mediator production induced by LPS. Liposomes composed of sphingomyelin (SM), phosphatidylethanolamine (PE) dipalmitoyl-phosphatidylcholine ((DPPC), phosphatidylserine (PS), palmitoyl-oleoyl-phosphatidylglycerol (POPG) and phosphatidylinositol (PI) were formed by bath-sonication for 30 min at room temperature. LPS (10 ng/ml) and different concentrations of phospholipids were added to monolayer cultures of differentiated U937 cells (A), or primary rat alveolar macrophages (B). At 6 h after stimulation, media were collected and secreted TNF-α levels were determined in U937 cultures. NO production was determined 24 h after stimulating rat alveolar macrophages. LPS stimulation in the absence of phospholipid was set as 100%. […] The average TNF-α production upon LPS stimulation was (8.0±0.54 ng/ml). The average NO production upon LPS stimulation was 12.17±0.27 μM.
FIG. 2. The inhibitory effect of phosphatidylglycerols on LPS-induced inflammatory mediator production is molecular species specific. PG liposomes were formed by bath-sonication for 30 min at room temperature. LPS (10 ng/ml) and different concentrations of PG were added to monolayer cultures of differentiated U937 cells (A) or rat alveolar macrophages (B). Media TNF-α measurements were performed 6 h after stimulation. Media NO measurements were performed 24 h after stimulation. LPS stimulation without PG was set at 100%. The molecular species of PG shown on the graph are 8:0; dioctanoyl-phosphatidylglycerol, 12:0; dilauroyl-phosphatidylglycerol (DLPG), 14:0; dimyristoyl-phosphatidylglycerol (DMPG), 16:0; dipalmitoyl-phosphatidylglycerol (DPPG), 18:0; distearoyl-phosphatidylglycerol, 16:0/18:1; palmitoyl-oleoyl-phosphatidylglycerol (POPG). […] The average TNF-α production upon LPS stimulation was 11.3±0.7 ng/ml. The average NO production upon LPS stimulation was 10.1±0.6 μM.
FIG. 3. […] Surfactant lipid (SL) and POPG were dried under nitrogen, and hydrated at 37° C. for 1 h. (A) SL and POPG were mixed in organic solvents prior to drying and hydrating and subsequently liposomes were produced. (B) SL and POPG were made as independent populations of liposomes that were subsequently mixed prior to macrophage treatment. 10 ng/ml of LPS and different concentrations of liposome mixtures were added to monolayer cultures of differentiated U937 cells. 6 h after stimulation, media were collected and TNF-α production was determined. LPS stimulation without phospholipid was set as 100%. […] The average TNF-α production upon LPS stimulation was 7.0±0.2 ng/ml.
U937 cells were induced to differentiate by treatment with 10 nM phorbol myristate acetate (PMA) for 48 h. The cells (1.3×10^5/well) were placed in 96-well plates and further incubated in the absence of PMA for 24 h in RPMI 1640 medium containing 10% BGS. Rat alveolar macrophages (5×10^5/well) were incubated in 24-well plates for 2 h after isolation. The indicated concentration of phospholipids was added to the cultures 30 min before adding LPS. After LPS addition cultures were incubated for 6 h at 37° C. at an atmosphere of 95% air and 5% CO2. At the end of the incubation period the medium was collected and assayed for TNF-α concentrations using an ELISA kit.
Surfactant lipids were isolated from the bronchioalveolar lavage of Sprague-Dawley rats, 28 days after intratracheal instillation of 25 mg of silica (˜125 mg/kg). Initially, the surfactant was purified by the method of Hawgood et. al. (25) using NaBr density gradient centrifugation. The purified surfactant was extracted with butanol (26) and segregated into butanol-soluble and -insoluble material.

For assay [2], the target named is T1, MD-2 (Homo sapiens, UniProt Q9Y6Y9).
T1 construct: made in house; host or cells: baculovirus-insect cell expression system
T1 sequence (Q9Y6Y9 19-160): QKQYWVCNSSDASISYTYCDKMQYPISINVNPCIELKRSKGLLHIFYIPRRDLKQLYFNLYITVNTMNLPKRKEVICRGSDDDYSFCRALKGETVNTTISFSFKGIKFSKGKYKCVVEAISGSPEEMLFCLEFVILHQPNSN
In words: MD-2 binding to solid phase phospholipids. As to conditions: for binding to MD-2: 1.25 nmole lipid per well, MD-2 1 μg/ml. How it is done: FIG. 16. MD-2 preferentially binds POPG.
The wells were then washed with 20 mM Tris buffer (pH 7.4) containing 0.15 M NaCl and 5 mM CaCl2 or 2 mM EGTA (buffer B), and 1 μg/ml anti-human CD14 IgG or anti-His antibody (50 μl/well) in buffer A was added and incubated overnight at 4° C., followed by the incubation with horseradish peroxidase (HRP)-labeled anti-mouse IgG (1:5000) for 1 h. After washing the wells with buffer B, the peroxidase reaction was finally performed using o-phenylenediamine as a substrate. The binding of CD14 or MD-2 to phospholipids was detected by measuring absorbance at 490 nm.

The target in assay [3] is T2, LBP binding to CD14 (Homo sapiens, UniProt P08571).
T2 construct: purchased Cell Sciences Inc. (CD14); R&D systems (LBP)
T2 sequence (P08571 20-345 limits assumed): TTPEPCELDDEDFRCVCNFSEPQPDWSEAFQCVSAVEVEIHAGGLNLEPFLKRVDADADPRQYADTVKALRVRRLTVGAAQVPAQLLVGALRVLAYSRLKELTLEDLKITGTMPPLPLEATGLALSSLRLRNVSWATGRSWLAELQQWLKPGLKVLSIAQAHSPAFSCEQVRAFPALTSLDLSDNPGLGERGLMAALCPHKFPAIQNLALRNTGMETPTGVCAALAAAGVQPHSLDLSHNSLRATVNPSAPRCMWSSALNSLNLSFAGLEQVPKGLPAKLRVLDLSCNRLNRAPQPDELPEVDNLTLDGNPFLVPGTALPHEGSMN
The experiment in a line: Phospholipid competition for LBP-CD14 binding. As to conditions: LBP 1 μg/ml, liposomes 20 μg/ml. The procedure:
CD14 (2 μg) or sTLR4 (100 ng) in aliquots of 20 μl of buffer B were pipeted onto a 96-well plate, and the solvent evaporated using a warm air dryer. […] The amount of bound LBP or MD-2 was detected using specific antibodies.

Regarding phosphatidylinositol [PI], the “LPS-induced TNF-α production” value in assay [1] is recorded as “significantly attenuated”. For the same compound, the “binding to MD-2” value in assay [2] was “Neither saturated nor unsaturated PC, nor unsaturated PI, nor DPPG showed any significant binding”. In addition, the “reduction of the interaction of LBP with CD14” value (shortened to “reduction”) in assay [3] is given as “not exhibited”.
Consider `CCCCCCCC/C=C\CCCCCCCC(=O)O[C@H](COC(=O)CCCCCCCCCCCCCCC)COP(=O)(O)OCC(O)CO` (stereo partly drawn) [POPG, palmitoyl-oleoyl-phosphatidylglycerol], for which the “LPS-induced TNF-α production” value in assay [1] is “significantly attenuated”. Moreover, the “binding to MD-2” value in assay [2] is “strongly bound”. In addition, the “reduction” value in assay [3] is given as “approximately 40%”.
On to `CCCCCCCCCCCCCC(=O)OCC(COP(=O)(O)OCC(O)CO)OC(=O)CCCCCCCCCCCCC` (stereo not drawn) [DMPG, dimyristoyl-phosphatidylglycerol], for which the “LPS-induced TNF-α production” value in assay [1] is “as potent as POPG”. Further, in assay [2] (POPG = 100%), the “binding to MD-2 relative to the POPG value” was about 50%.
Consider `CCCCCCCCCCCCCCCC(=O)OCC(COP(=O)(O)OCC(O)CO)OC(=O)CCCCCCCCCCCCCCC` (stereo not drawn) [DPPG, dipalmitoyl-phosphatidylglycerol, reference compound], for which the “LPS-induced TNF-α production” value in assay [1] is listed as “failed to antagonize”. The “binding to MD-2” value in assay [2] is reported as “Neither saturated nor unsaturated PC, nor unsaturated PI, nor DPPG showed any significant binding”.
In the case of `CCCCCCCCCCCCCCCC(=O)OC[C@H](COP(=O)([O-])OCC[N+](C)(C)C)OC(=O)CCCCCCCCCCCCCCC` [DPPC, dipalmitoyl-phosphatidylcholine, reference compound], in assay [1], the “LPS-induced TNF-α production” value is recorded as “no significant effect”. Moreover, the “reduction” value in assay [3] was “not exhibited”.
